The source of these data is patent US20230098332A1, “HETEROCYCLIC DERIVATIVES AS TRMP8 ANTAGONISTS” (Givaudan SA, priority 2020, published 2023).

The structures appear in SMILES notation. Where a name gives a salt, the structure may show the parent alone.

The target in this experiment is T1, hTRPM8 (Homo sapiens, UniProt Q7Z2W7).
T1 construct: expressed in transfected cells
The experiment in a line: Assay on TRPM8 modulators: calcium imaging (Fluo-4, Flexstation) in HEK293 cell line stably expressing hTRPM8. The experiment is classed as cell-based. The following applies: TRPM8 agonist activity, calcium influx, HEK293 stably expressing hTRPM8, sigmoidal dose-response fit. As for the experimental part:
A HEK293 cell line stably expressing hTRPM8 was generated according to Klein et al., (Chem. Senses 36: 649-658, 2011) and receptor activation was monitored by calcium imaging in a Flexstation. For Ca-imaging assays of TRPM8 channel activation, cells were seeded on day 0 at a density of 12000 cells per well in Dulbecco's modified Eagle medium (DMEM) containing 9% foetal bovine serum in black, clear bottom 96-well plates that had been coated with 0.001% polyethyleneimine (molecular weight=60 000, Acros Organics). On day 2, agonists were evaluated via calcium imaging using Fluo-4. Briefly, growth medium was discarded, and the cells were incubated in the dark for 1 h at 37° C. in 50 μL loading buffer consisting of 2.7 μM Fluo-4 AM (Invitrogen) and […] probenecid (Sigma-Aldrich) in DMEM (without serum). After incubation, the plates were washed five times with 100 μL of assay buffer (in mM: 130 NaCl, 5 KCl, 10 HEPES, 2 CaCl2, and 10 glucose, pH7.4.) and further incubated in the dark at room temperature for 30 min. The cells were then washed five times with 100 μL assay buffer and then calcium influx to serial dilutions of inventive compounds were measured in a Flexstation 3 (Molecular Devices). Receptor activation was initiated following addition of 20 μl of a 10-fold concentrated ligand stock solution, which is also prepared in assay buffer. Fluorescence was continuously monitored for 15 seconds prior to ligand addition and for 105 seconds after ligand addition, for a total of 120 seconds. Maximal receptor activation in relation to solvent control and relative to 31.6 μM menthol is determined. Data from serial dilutions were processed with a KNIME workflow to fit a sigmoidal dose-response curve and to extrapolate EC50 values.

T1 sequence (Q7Z2W7 whole entry): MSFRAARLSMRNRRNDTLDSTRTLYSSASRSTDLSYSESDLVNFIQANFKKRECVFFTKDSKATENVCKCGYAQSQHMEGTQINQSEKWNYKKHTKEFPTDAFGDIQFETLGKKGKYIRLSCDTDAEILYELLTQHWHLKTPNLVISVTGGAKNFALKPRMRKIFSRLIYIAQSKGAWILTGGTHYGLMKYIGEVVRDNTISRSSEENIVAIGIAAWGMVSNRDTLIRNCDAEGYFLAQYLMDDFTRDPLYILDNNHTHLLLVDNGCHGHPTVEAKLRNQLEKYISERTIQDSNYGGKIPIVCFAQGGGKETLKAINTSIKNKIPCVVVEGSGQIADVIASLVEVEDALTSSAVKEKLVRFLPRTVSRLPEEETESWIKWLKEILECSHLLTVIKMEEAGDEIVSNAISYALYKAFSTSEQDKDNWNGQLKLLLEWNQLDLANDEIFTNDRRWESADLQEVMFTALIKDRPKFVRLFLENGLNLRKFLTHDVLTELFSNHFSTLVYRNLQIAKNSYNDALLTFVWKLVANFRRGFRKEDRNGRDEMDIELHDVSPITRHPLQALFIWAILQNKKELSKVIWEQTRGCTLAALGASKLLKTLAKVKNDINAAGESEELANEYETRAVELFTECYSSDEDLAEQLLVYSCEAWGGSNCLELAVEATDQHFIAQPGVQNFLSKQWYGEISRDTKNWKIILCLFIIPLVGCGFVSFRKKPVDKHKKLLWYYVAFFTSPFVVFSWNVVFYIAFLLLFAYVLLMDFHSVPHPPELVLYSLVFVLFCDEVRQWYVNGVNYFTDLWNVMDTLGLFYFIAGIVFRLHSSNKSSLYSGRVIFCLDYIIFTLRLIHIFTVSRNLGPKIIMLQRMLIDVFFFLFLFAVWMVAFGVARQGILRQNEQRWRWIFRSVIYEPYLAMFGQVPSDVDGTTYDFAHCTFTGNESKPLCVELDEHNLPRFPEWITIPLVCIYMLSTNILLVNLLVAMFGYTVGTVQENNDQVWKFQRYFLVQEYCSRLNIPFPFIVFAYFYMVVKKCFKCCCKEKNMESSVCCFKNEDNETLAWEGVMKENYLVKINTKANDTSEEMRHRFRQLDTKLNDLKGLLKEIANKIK

The term EC50 denotes the concentration needed to bring the measured effect to its halfway point. For the compound `Cc1cc(C)c(OCCN2CCN(C)CC2)c(Cc2cccc(Br)c2)c1` [compound 58, 1-(2-(2-(3-bromobenzyl)-4,6-dimethylphenoxy)ethyl)-4-methylpiperazine], the EC50 fell in the range of 1000 to 35000 nM. For `Cc1cc(C)c(OC(C)CN2CCN(C)CC2)c(Cc2ccccc2C#N)c1` (stereo not shown) [compound 116, 2-(3,5-dimethyl-2-((1-(4-methylpiperazin-1-yl)propan-2-yl)oxy)benzyl)benzonitrile hydrochloride] the value was 50 to 300 nM.

With `Cc1cc(C)c(OCCN2CCN(C)CC2)c(Cc2ccncc2)c1` [compound 65, 1-(2-(2,4-dimethyl-6-(pyridin-4-ylmethyl)phenoxy)ethyl)-4-methylpiperazine], the EC50 fell in the range of 1000 to 35000 nM. Then `Cc1cc(C)c(OCCN2CCOCC2)c(Cc2c(F)cccc2C#N)c1` [compound 120, 2-(3,5-dimethyl-2-(2-morpholinoethoxy)benzyl)-3-fluorobenzonitrile], with 50 to 300 nM; and `Cc1cc(C)c(OCCN2CCOCC2)c(Cc2c(Br)cccc2C#N)c1` [compound 141, 3-bromo-2-(3,5-dimethyl-2-(2-morpholinoethoxy)benzyl)benzonitrile], with 300 to 1000 nM; and `Cc1ccc(/C=C/CN2CCN(C)CC2)c(Cc2ccccc2)c1` [compound 44, (E)-1-(3-(2-benzyl-4-methylphenyl)allyl)-4-methylpiperazine], with 1000 to 35000 nM. For `Cc1cc(C)c(OCCN2CCOCC2)c(Cc2c(Cl)cccc2C#N)c1` [compound 142, 3-chloro-2-(3,5-dimethyl-2-(2-morpholinoethoxy)benzyl)benzonitrile] the value was 300 to 1000 nM; for `Cc1ccc(OCCN2CCN(C)CC2)c(C(O)c2ccccc2)c1` (stereo not shown) [compound 41, (5-methyl-2-(2-(4-methylpiperazin-1-yl)ethoxy)phenyl)(phenyl)methanol], 1000 to 35000 nM. For `Cc1ccc(C)c(OCCN2CCN(C)CC2)c1Cc1ccccc1` [compound 66, 1-(2-(2-benzyl-3,6-dimethylphenoxy)ethyl)-4-methylpiperazine] the value was 1000 to 35000 nM.

For the compound `Cc1ccc(OCCN2CCN(C)CC2)c(Cc2cccc(Cl)c2)c1` [compound 59, 1-(2-(2-(3-chlorobenzyl)-4-methylphenoxy)ethyl)-4-methylpiperazine], the EC50 was 1000 to 35000 nM. For `Cc1cc(C)c(OCCN2CCN(C)CC2)c(Cc2ccccc2F)c1` [compound 56, 1-(2-(2-(2-fluorobenzyl)-4,6-dimethylphenoxy)ethyl)-4-methylpiperazine] the value was 50 to 300 nM.

On to `Cc1ccc(OCCN2CCN(C)CC2)c(C(C)c2ccccc2)c1` (stereo not shown) [compound 101, 1-methyl-4-(2-(4-methyl-2-(1-phenylethyl)phenoxy)ethyl)piperazine], for which the EC50 was in the range of 300 to 1000 nM.

On to `CCN1CCN(CCOc2ccc(Cl)cc2Cc2ccccc2)CC1` [compound 72, 1-(2-(2-benzyl-4-chlorophenoxy)ethyl)-4-ethylpiperazine hydrochloride], for which the EC50 was 1000 to 35000 nM. Then `Cc1ccc(N(C)CCN2CCOCC2)c(Cc2ccccc2F)c1` [compound 114, 2-(2-fluorobenzyl)-N,4-dimethyl-N-(2-morpholinoethyl)aniline], with 50 to 300 nM; and `Cc1ccc(OC(=O)CN2CCN(C)CC2)c(Cc2ccccc2)c1` [compound 136, 2-benzyl-4-methylphenyl 2-(4-methylpiperazin-1-yl)acetate], with 1000 to 35000 nM; and `Cc1cc(C)c(OCCN2CCOCC2)c(Cc2ccccc2CC#N)c1` [compound 108, 2-(2-(3,5-dimethyl-2-(2-morpholinoethoxy)benzyl)phenyl)acetonitrile], with 50 to 300 nM.

For the compound `CN1CCN(CC2CCc3cccc(Cc4ccccc4)c3O2)CC1` (stereo not shown) [compound 50, 1-((8-benzylchroman-2-yl)methyl)-4-methylpiperazine], the EC50 was 1000 to 35000 nM. Then `C=C(c1ccccc1F)c1cc(C)cc(C)c1OCCN1CCOCC1` [compound 145, 4-(2-(2-(1-(2-fluorophenyl)vinyl)-4,6-dimethylphenoxy)ethyl)morpholine], with 300 to 1000 nM. For `Cc1cc(C)c(OCCN2CCOCC2)c(Cc2cc(F)ccc2F)c1` [compound 147, 4-(2-(2-(2,5-difluorobenzyl)-4,6-dimethylphenoxy)ethyl)morpholine] the value was 50 to 300 nM; for `Cc1cc(C)c(OC(C)CN2CCOCC2)c(Cc2c(F)cccc2F)c1` (stereo not shown) [compound 150, 4-(2-(2-(2,6-difluorobenzyl)-4,6-dimethylphenoxy)propyl)morpholine], 300 to 1000 nM; for `Cc1ccc(OC(C)CN2CCN(C)CC2)c(Cc2ccccc2)c1` (stereo not shown) [compound 91, 1-(2-(2-benzyl-4-methylphenoxy)propyl)-4-methylpiperazine hydrochloride], 300 to 1000 nM. For `Cc1cc(C)c(OCCN2CCN(C)CC2)c(Cc2ccccc2C#N)c1` [compound 117, 2-(3,5-dimethyl-2-(2-(4-methylpiperazin-1-yl)ethoxy)benzyl)benzonitrile], the EC50 is 50 to 300 nM. For `Cc1cc(C)c(CCCN2CCOCC2)c(Oc2ccccc2F)c1` [compound 162, 4-(3-(2-(2-fluorophenoxy)-4,6-dimethylphenyl)propyl)morpholine] the value was less than 50 nM; for `Cc1cc(C)c(N(C)CCN2CCOCC2)c(Cc2c(F)cccc2F)c1` [compound 111, 2-(2,6-difluorobenzyl)-N,4,6-trimethyl-N-(2-morpholinoethyl)aniline], 300 to 1000 nM; for `Cc1cc(C)c(OCCN2CCOCC2)c(Cc2cc(F)c(F)cc2F)c1` [compound 156, 4-(2-(2,4-dimethyl-6-(2,4,5-trifluorobenzyl)phenoxy)ethyl)morpholine], 1000 to 35000 nM.

With `CC1CCC(OCCN2CCN(C)CC2)C(Cc2ccccc2)C1` (stereo not shown) [compound 52, 1-(2-((2-benzyl-4-methylcyclohexyl)oxy)ethyl)-4-methylpiperazine dihydrochloride], the EC50 lay within 1000 to 35000 nM.

`Cc1cc(C)c(OCCN2CCN(C)CC2)c(Cc2cccnc2)c1` [compound 64, 1-(2-(2,4-dimethyl-6-(pyridin-3-ylmethyl)phenoxy)ethyl)-4-methylpiperazine]: the EC50 was in the range of 1000 to 35000 nM. Consider `CC1CCC(OCCN2CCN(C)CC2)C(Cc2ccccc2)C1` (stereo not shown) [compound 51, 1-(2-((2-benzyl-4-methylcyclohexyl)oxy)ethyl)-4-methylpiperazine], for which the half-maximal effective concentration (EC50) was in the range of 1000 to 35000 nM. As for `Cc1cc(C)c(OCCN2CCOCC2)cc1Cc1c(F)c(F)c(F)c(F)c1F` [compound 155, 4-(2-(2,4-dimethyl-5-((perfluorophenyl)methyl)phenoxy)ethyl)morpholine], the EC50 is 1000 to 35000 nM. Then `CCc1cc(C)cc(Cc2ccccc2F)c1OCCN1CCOCC1` [compound 161, 4-(2-(2-ethyl-6-(2-fluorobenzyl)-4-methylphenoxy)ethyl)morpholine], with 50 to 300 nM.

In the case of `Cc1cccc(OCCN2CCN(C)CC2)c1Cc1ccccc1` [compound 68, 1-(2-(2-benzyl-3-methylphenoxy)ethyl)-4-methylpiperazine], the EC50 was in the range of 1000 to 35000 nM. Then `Cc1ccc(Oc2ccccc2C#N)c(CCCN2CCN(C)CC2)c1` [compound 127, 2-(4-methyl-2-(3-(4-methylpiperazin-1-yl)propyl)phenoxy)benzonitrile], with 1000 to 35000 nM; and `Cc1ccc(OCCN2CCN(C)CC2)c(/C=C2\CCCCC2=O)c1` [compound 46, (E)-2-(5-methyl-2-(2-(4-methylpiperazin-1-yl)ethoxy)benzylidene)cyclohexan-1-one], with 300 to 1000 nM. Then `Cc1ccc(OCCN2CCN(C)CC2)c(C(=O)c2ccccc2)c1` [compound 42, (5-methyl-2-(2-(4-methylpiperazin-1-yl)ethoxy)phenyl)(phenyl)methanone], with 1000 to 35000 nM; and `Cc1cc(C)c(OCCCN2CCOCC2)c(Cc2ccccc2C#N)c1` [compound 124, 2-(3,5-dimethyl-2-(3-morpholinopropoxy)benzyl)benzonitrile], with 50 to 300 nM; and `Cc1cc(C)c(OC(C)CN2CCOCC2)c(Cc2ccccc2C#N)c1` (stereo not shown) [compound 49, 2-(3,5-dimethyl-2-((1-morpholinopropan-2-yl)oxy)benzyl)benzonitrile], with 50 to 300 nM. For `Cc1cc(C)c(OCCN2CCN(C)CC2)cc1Cc1ccccc1C#N` [compound 109, 2-(2,4-dimethyl-5-(2-(4-methylpiperazin-1-yl)ethoxy)benzyl)benzonitrile] the value was 1000 to 35000 nM. Take `Cc1cc(C)c(OCCN2CCOCC2)c(Cc2ccccc2Cl)c1` [compound 152, 4-(2-(2-(2-chlorobenzyl)-4,6-dimethylphenoxy)ethyl)morpholine]: the EC50 fell in the range of 50 to 300 nM. For `Cc1ccc(OCC(C)N2CCOCC2)c(Cc2ccccc2C#N)c1` (stereo not shown) [compound 132, 2-(5-methyl-2-(2-morpholinopropoxy)benzyl)benzonitrile] the value was 300 to 1000 nM; for `Cc1cc(C)c(OCCN2CCN(C)CC2)c(Cc2ccccc2C(F)(F)F)c1` [compound 62, 1-(2-(2,4-dimethyl-6-(2-(trifluoromethyl)benzyl)phenoxy)ethyl)-4-methylpiperazine], 300 to 1000 nM.
